# Results: article PMC6522510 (Nature Communications, 2019)
# “And” between values parts separate entries of the source, which are not always exact repeats. Equal values may be shown once. Where a name gives a salt, the structure may show the parent alone. Read-outs that look alike come from different tables or passages of the source.
# Columns and labels:
# CMK [1] = assay: Secondary dose-response HTS, Cell Titer Glo; format: cell-based, human; settings: CMK; for EC50: read-out: average effective concentration, CMK
# CMS [2] = assay: Secondary dose-response HTS, Cell Titer Glo; format: cell-based, human; settings: for EC50: read-out: average effective concentration, CMS
# ML2 = assay: Secondary dose-response HTS, Cell Titer Glo; format: cell-based, human; settings: secondary high-throughput screen, ML-2; for EC50: read-out: average effective concentration, ML-2
# CHRF288-11 [3] = assay: Secondary dose-response HTS, Cell Titer Glo; format: cell-based, human; settings: secondary high-throughput screen, CHRF288-11; for EC50: read-out: average effective concentration, CHRF288-11
# MV4-11 [4] = assay: Secondary dose-response HTS, Cell Titer Glo; format: cell-based, human; settings: secondary high-throughput screen, MV4-11; for EC50: read-out: average effective concentration, MV4-11
# MOLM-13 = assay: Secondary dose-response HTS, Cell Titer Glo; format: cell-based, human; settings: secondary high-throughput screen, MOLM-13; for EC50: read-out: average effective concentration, MOLM-13
# U937 = assay: Secondary dose-response HTS, Cell Titer Glo; format: cell-based, human; settings: secondary high-throughput screen, U937; for EC50: read-out: average effective concentration, U937
# M07e [5] = assay: cells; set-up: species or system AML cell lines (8); Secondary HTS, 10-point dose-response in triplicate, Cell Titer Glo viability, four-parameter fit EC50; settings: M-07e, 72 h, read-out: M07e
# CMS [6] = assay: cells; set-up: species or system AML cell lines (8); Secondary HTS, 10-point dose-response in triplicate, Cell Titer Glo viability, four-parameter fit EC50; settings: 72 h, read-out: CMS
# CHRF288-11 [7] = assay: cells; set-up: species or system AML cell lines (8); Secondary HTS, 10-point dose-response in triplicate, Cell Titer Glo viability, four-parameter fit EC50; settings: 72 h, read-out: CHRF288-11
# M07e [8] = system: M07e; set-up: species or system AML cell lines (8); Primary HTS, single concentration about 10 uM, Cell Titer Glo viability; log10 luminescence, per cent inhibition relative to cycloheximide control; settings: 72 h, relative to cycloheximide control, log10 luminescence, inhibitor, M07e %inh, 10 µM
# CMK [9] = system: CMK; set-up: species or system AML cell lines (8); Primary HTS, single concentration about 10 uM, Cell Titer Glo viability; log10 luminescence, per cent inhibition relative to cycloheximide control; settings: 72 h, relative to cycloheximide control, log10 luminescence, inhibitor, CMK %inh, 10 µM
# ML-2 = system: ML-2; set-up: species or system AML cell lines (8); Primary HTS, single concentration about 10 uM, Cell Titer Glo viability; log10 luminescence, per cent inhibition relative to cycloheximide control; settings: 72 h, relative to cycloheximide control, log10 luminescence, inhibitor, ML-2 %inh, 10 µM
# MV4-11 [10] = system: MV4-11; set-up: species or system AML cell lines (8); Primary HTS, single concentration about 10 uM, Cell Titer Glo viability; log10 luminescence, per cent inhibition relative to cycloheximide control; settings: 72 h, relative to cycloheximide control, log10 luminescence, inhibitor, MV4-11 %inh, 10 µM
# CHRF288-11 [11] = system: CHRF288-11; set-up: species or system AML cell lines (8); Primary HTS, single concentration about 10 uM, Cell Titer Glo viability; log10 luminescence, per cent inhibition relative to cycloheximide control; settings: 72 h, relative to cycloheximide control, log10 luminescence, inhibitor, CHRF288-11 %inh, 10 µM
# CMS [12] = system: CMS; set-up: species or system AML cell lines (8); Primary HTS, single concentration about 10 uM, Cell Titer Glo viability; log10 luminescence, per cent inhibition relative to cycloheximide control; settings: 72 h, relative to cycloheximide control, log10 luminescence, inhibitor, CMS %inh, 10 µM
# [13] = Homo sapiens, secondary high-throughput screen
# [14] = Homo sapiens, HTS, secondary high-throughput screen, CMS
# [15] = secondary high-throughput screen
# [16] = secondary high-throughput screen, CMS
Molecule,EC50 (CMK [1]; [13]) [nM],EC50 (CMS [2]; [14]) [nM],EC50 (ML2; Homo sapiens) [nM],"EC50 (CHRF288-11 [3]; Homo sapiens, HTS) [nM]",EC50 (MV4-11 [4]; Homo sapiens) [nM],EC50 (MOLM-13; Homo sapiens) [nM],"EC50 (U937; Homo sapiens, U-937) [nM]",EC50 (M07e [5]) [nM],EC50 (CMK [1]; Homo sapiens) [nM],"EC50 (CMS [2]; Homo sapiens, HTS) [nM]",also measured
NC(=O)Nc1cc(-c2cccc(F)c2)sc1C(=O)N[C@H]1CCCNC1 [AZD7762],45,680,26,110,1,> 10000,63,> 10000,,,
COc1c(C)cnc(Cn2cnc3c(Cl)nc(N)nc32)c1C [BIIB021],67,110,83,91,56,55,30,> 10000,,,
Nc1cc(C(F)(F)F)c(-c2cc(N3CCOCC3)nc(N3CCOCC3)n2)cn1 [BUPARLISIB],,,1400,5700,1800,1500,3000,> 10000,4100,1600,
COCc1c(C(C)C)nc(C(C)C)c(/C=C/[C@@H](O)C[C@@H](O)CC(=O)O)c1-c1ccc(F)cc1 [CERIVASTATIN],160,6800,1600,49,340,890,2300,> 10000,,,
CC(C)c1cc(-c2n[nH]c(=O)n2-c2ccc3c(ccn3C)c2)c(O)cc1O [GANETESPIB],,,5.4,7,1,2.4,1.6,> 10000,2.3,10,EC50 (CMS [6]): 9.6 nM
C[C@@H](Oc1cc(-n2cnc3ccc(CN4CCN(C)CC4)cc32)sc1C(N)=O)c1ccccc1C(F)(F)F [GSK461364],,,59,,590,170,90,> 10000,750,10000,EC50 (CHRF288-11 [7]): > 10000 nM
CNC(=O)c1nn(C)c2c1C(C)(C)Cc1cnc(Nc3ccc(N4CCN(C)CC4)cc3)nc1-2 [MILCICLIB],,,5600,2200,1,1,5300,> 10000,29,6400,
CC1(C)CCC(c2ccc(Cl)cc2)=C(CN2CCN(c3ccc(C(=O)NS(=O)(=O)c4ccc(N[C@H](CCN5CCOCC5)CSc5ccccc5)c(S(=O)(=O)C(F)(F)F)c4)cc3)CC2)C1 [NAVITOCLAX],,,7100,> 10000,68,5100,> 10000,> 10000,1200,29,M07e %inh (M07e [8]): 48.21% and 73.78%; CMK %inh (CMK [9]): 132.4% and 82.78%; ML-2 %inh (ML-2): 57.75% and 49.42%; MV4-11 %inh (MV4-11 [10]): 77.41% and 95.61%; CHRF288-11 %inh (CHRF288-11 [11]): 23.49% and 12.88%; CMS %inh (CMS [12]): 98.49% and 71.04%
Cc1cnc(NC(=O)Nc2cc(Br)c(C)cc2OC[C@@H]2CNCCO2)cn1 [RABUSERTIB],450,8500,74,2100,500,400,3300,> 10000,,,
C=CCNC1=C2C[C@@H](C)C[C@H](OC)[C@H](O)[C@@H](C)/C=C(\C)[C@H](OC(N)=O)[C@@H](OC)/C=C\C=C(/C)C(=O)NC(=CC1=O)C2=O [TANESPIMYCIN],280,180,100,1300,120,80,50,> 10000,,,
O=C(NCC1(c2nc(-c3ccccc3)cs2)CCOCC1)c1cccc(-c2noc(C(F)(F)F)n2)c1 [TMP269],,,,,,,,,,,"average effective concentration, CMK (CMK [1]; [15]): Inactive; average effective concentration, CMS (CMS [2]; [16]): Inactive; average effective concentration, ML-2 (ML2): Inactive; average effective concentration, CHRF288-11 (CHRF288-11 [3]): Inactive; average effective concentration, MV4-11 (MV4-11 [4]): Inactive; average effective concentration, MOLM-13 (MOLM-13): Inactive; average effective concentration, U937 (U937): Inactive"
CC[C@]1(O)C[C@@H]2CN(CCc3c([nH]c4ccccc34)[C@@](C(=O)OC)(c3cc4c(cc3OC)N(C)[C@H]3[C@@](O)(C(=O)OC)[C@H](OC(C)=O)[C@]5(CC)C=CCN6CC[C@]43[C@@H]65)C2)C1 [VINBLASTINE SULFATE],3800,340,570,570,56,220,160,> 10000,,,
COCCn1c2c([n+](Cc3cnccn3)c1C)C(=O)c1ccccc1C2=O [YM-155],31,91,21,2300,20,10,22,> 10000,,,
I-BET151,,,,,,,,,,,"average effective concentration, CMK (CMK [1]; [15]): Inactive; EC50 (CMS [2]; [16]): 2100 nM; EC50 (ML2): 2700 nM; EC50 (CHRF288-11 [3]): 5100 nM; average effective concentration, MV4-11 (MV4-11 [4]): Inactive; EC50 (MOLM-13): 650 nM; EC50 (U937): 3200 nM"
MITHRAMYCIN A,,,,,,,,,,,EC50 (CMK [1]; [15]): 260 nM; EC50 (CMS [2]; [16]): 180 nM; EC50 (ML2): 230 nM; EC50 (CHRF288-11 [3]): 160 nM; EC50 (MV4-11 [4]): 53 nM; EC50 (MOLM-13): 140 nM; EC50 (U937): 240 nM
